For two molecules, Activity results are on record in ChEMBL document CHEMBL1921739, “Diabetic nephropathy-related active cyclic peptides from the roots of Brachystemma calycinum” (Bioorg Med Chem Lett, 2011).

Data set [1] is described as follows: Antidiabetic nephropathy activity in rat CRL-2573 cells assessed as inhibition of high glucose-induced MCP-1 production at 10 uM preincubated for 1 hr before glucose challenge measured after 24 hrs by ELISA. It is filed as functional, cell-based. In general terms: In an ELISA, binding on a coated surface is turned into a signal by an enzyme label.
Data set [2] is described as follows: Antidiabetic nephropathy activity in rat CRL-2573 cells assessed as inhibition of high glucose-induced IL-6 production at 10 uM preincubated for 1 hr before glucose challenge measured after 24 hrs by ELISA. The data set is classed as functional, cell-based.
Data set [3] is described as follows: Antidiabetic nephropathy activity in rat CRL-2573 cells assessed as inhibition of high glucose-induced ROS production at 1 to 10 uM by flow cytometry. It is filed as functional, cell-based.
A short description of data set [4]: Cytotoxicity against rat CRL-2573 cells assessed as cell viability at 10 uM after 24 hrs by trypan blue exclusion assay. It is filed as cell-based. As to conditions: crl-2573, 24 h.
Data set [5] is described as follows: Antidiabetic nephropathy activity in rat CRL-2573 cells assessed as inhibition of high glucose-induced collagen 4production at 1 uM preincubated for 1 hr before glucose challenge measured after 24 hrs by ELISA. The data set is classed as functional, cell-based.

Active and inactive are the calls of the source. The calls are words filed in the database; no cut-off is given here. Peptide text beside a SMILES is read from it.

As to `CC(C)C[C@@H]1NC(=O)[C@H](CC(=O)O)NC(=O)[C@H](Cc2c[nH]c3ccccc23)NC(=O)[C@H](C)NC(=O)[C@@H]2CCCN2C(=O)CNC(=O)[C@H](Cc2ccccc2)NC(=O)[C@@H]2CCCN2C1=O` (cyclo(AWDLPFGP)), the result in data set [1], in data set [2] and in data set [3] was Active.

With `CC[C@H](C)[C@@H]1NC(=O)[C@@H]2CCCN2C(=O)[C@@H]2CCCN2C(=O)[C@H](Cc2ccc(O)cc2)NC(=O)[C@H](CO)NC(=O)[C@H](C)NC(=O)[C@H](Cc2ccccc2)NC(=O)[C@H](CO)NC1=O` [DUANBANHUAIN A] (cyclo(ASYPPISF)), the result in data set [1], in data set [2], in data set [5] and in data set [3] was Active. In addition, the Activity result in data set [4] is recorded as “Non-toxic”.
